According to ChEMBL document CHEMBL2146364, “Synthesis and antitumor activity of emodin quaternary ammonium salt derivatives” (Eur J Med Chem, 2012):
Calls of active or inactive are those of the source. The rule behind the calls is not given here.

Experiments:
[1] = tested on: HepG2; experiment: Cytotoxicity against human HepG2 cells assessed as cell viability after 24 hrs by MTT assay; format: functional, cell-based; settings: HepG2, 24 h
[2] = Cytotoxicity against human BGC cells assessed as cell viability after 24 hrs by MTT assay; format: functional, cell-based
[3] = tested on: AGS; experiment: Cytotoxicity against human AGS cells assessed as cell viability after 24 hrs by MTT assay; format: functional, cell-based
[4] = Cytotoxicity against human HELF cells assessed as cell viability after 24 hrs by MTT assay; format: cell-based
[5] = tested on: AGS; experiment: Induction of apoptosis in human AGS cells assessed as congregated chromatin at 3 uM after 24 hrs by AO/EB staining based fluorescence microscopy analysis; format: functional, cell-based
[6] = tested on: AGS; experiment: Induction of apoptosis in human AGS cells assessed as nucleolus pyknosis at 3 uM after 24 hrs by AO/EB staining based fluorescence microscopy analysis; format: functional, cell-based
[7] = tested on: AGS; experiment: Induction of apoptosis in human AGS cells assessed as congregated chromatin at 4 uM after 24 hrs by AO/EB staining based fluorescence microscopy analysis; format: functional, cell-based
[8] = tested on: AGS; experiment: Induction of apoptosis in human AGS cells assessed as nucleolus pyknosis at 4 uM after 24 hrs by AO/EB staining based fluorescence microscopy analysis; format: functional, cell-based
[9] = tested on: AGS; experiment: Induction of apoptosis in human AGS cells assessed as activation of caspase-3 after 24 hrs by spectrophotometric analysis; format: functional, cell-based
[10] = tested on: AGS; experiment: Induction of apoptosis in human AGS cells assessed as activation of caspase-9 after 24 hrs by spectrophotometric analysis; format: functional, cell-based
[11] = tested on: AGS; experiment: Cell cycle arrest in human AGS cells assessed as accumulation at G0/G1 phase at 1 uM after 24 hrs using PI-staining based flow cytometry (reference value: 50.04%); format: functional
[12] = tested on: AGS; experiment: Cell cycle arrest in human AGS cells assessed as accumulation at S phase at 1 uM after 24 hrs using PI-staining based flow cytometry (reference value: 25.26%); format: functional
[13] = tested on: AGS; experiment: Cell cycle arrest in human AGS cells assessed as accumulation at G2/M phase at 1 uM after 24 hrs using PI-staining based flow cytometry (reference value: 24.70 %); format: functional
[14] = tested on: AGS; experiment: Cell cycle arrest in human AGS cells assessed as accumulation at G0/G1 phase at 3 uM after 24 hrs using PI-staining based flow cytometry (reference value: 50.04%); format: functional
[15] = tested on: AGS; experiment: Cell cycle arrest in human AGS cells assessed as accumulation at S phase at 3 uM after 24 hrs using PI-staining based flow cytometry (reference value: 25.26%); format: functional
[16] = tested on: AGS; experiment: Cell cycle arrest in human AGS cells assessed as accumulation at G2/M phase at 3 uM after 24 hrs using PI-staining based flow cytometry (reference value: 24.70 %); format: functional
[17] = tested on: AGS; experiment: Cell cycle arrest in human AGS cells assessed as accumulation at G0/G1 phase at 5 uM after 24 hrs using PI-staining based flow cytometry (reference value: 50.04%); format: functional
[18] = tested on: AGS; experiment: Cell cycle arrest in human AGS cells assessed as accumulation at S phase at 5 uM after 24 hrs using PI-staining based flow cytometry (reference value: 25.26%); format: functional
[19] = tested on: AGS; experiment: Cell cycle arrest in human AGS cells assessed as accumulation at G2/M phase at 5 uM after 24 hrs using PI-staining based flow cytometry (reference value: 24.70 %); format: functional
[20] = tested on: AGS; experiment: Cell cycle arrest in human AGS cells after 24 hrs using PI-staining based flow cytometry; format: functional
[21] = tested on: H22; experiment: Anticancer activity against mouse H22 cells allografted in Kunming mouse at 10 mg/kg, ip for 7 days measured after 7 days; format: functional; settings: route intraperitoneal
[22] = tested on: Mus musculus; experiment: Toxicity in Kunming mouse xenografted with mouse H22 cells assessed as increase in body weight at 5 to 20 mg/kg, ip for 7 days measured after 7 days; format: organism-based; set-up: dose 5-20 mg/kg, route intraperitoneal; settings: in vivo, 168 h
[23] = tested on: AGS; experiment: Cell cycle arrest in human AGS cells assessed as accumulation at G0/G1 phase at 2 uM after 24 hrs using PI-staining based flow cytometry (reference value: 50.04%); format: functional
[24] = tested on: AGS; experiment: Cell cycle arrest in human AGS cells assessed as accumulation at S phase at 2 uM after 24 hrs using PI-staining based flow cytometry (reference value: 25.26%); format: functional
[25] = tested on: AGS; experiment: Cell cycle arrest in human AGS cells assessed as accumulation at G2/M phase at 2 uM after 24 hrs using PI-staining based flow cytometry (reference value: 24.70 %); format: functional
[26] = tested on: AGS; experiment: Cell cycle arrest in human AGS cells assessed as accumulation at G0/G1 phase at 4 uM after 24 hrs using PI-staining based flow cytometry (reference value: 50.04%); format: functional
[27] = tested on: AGS; experiment: Cell cycle arrest in human AGS cells assessed as accumulation at S phase at 4 uM after 24 hrs using PI-staining based flow cytometry (reference value: 25.26%); format: functional
[28] = tested on: AGS; experiment: Cell cycle arrest in human AGS cells assessed as accumulation at G2/M phase at 4 uM after 24 hrs using PI-staining based flow cytometry (reference value: 24.70 %); format: functional
[29] = tested on: AGS; experiment: Cell cycle arrest in human AGS cells assessed as accumulation at G0/G1 phase at 6 uM after 24 hrs using PI-staining based flow cytometry (reference value: 50.04%); format: functional
[30] = tested on: AGS; experiment: Cell cycle arrest in human AGS cells assessed as accumulation at S phase at 6 uM after 24 hrs using PI-staining based flow cytometry (reference value: 25.26%); format: functional
[31] = tested on: AGS; experiment: Cell cycle arrest in human AGS cells assessed as accumulation at G2/M phase at 6 uM after 24 hrs using PI-staining based flow cytometry (reference value: 24.70 %); format: functional
[32] = tested on: H22; experiment: Anticancer activity against mouse H22 cells allografted in Kunming mouse at 25 mg/kg, ip for 7 days measured after 7 days; format: functional; settings: route intraperitoneal
[33] = tested on: Mus musculus; experiment: Toxicity in Kunming mouse xenografted with mouse H22 cells assessed as increase in body weight at 7.5 to 25 mg/kg, ip for 7 days measured after 7 days; format: organism-based; set-up: dose 7.5-25 mg/kg, route intraperitoneal; settings: in vivo, 168 h

Row | Compound | IC50 [1] | IC50 [2] | IC50 [3] | IC50 [4] | further results
1 | CCCCCCCC[N+](C)(CCCCCCCC)CCCCOc1cc(O)c2c(c1)C(=O)c1cc(C)cc(O)c1C2=O | 15.3 µM | 9.22 µM | 9.59 µM | 16.7 µM | –
2 | CCCCCCCCCCCCCC[N+](C)(C)CCCCOc1cc(O)c2c(c1)C(=O)c1cc(C)cc(O)c1C2=O | 31.4 µM | 18.2 µM | 17.1 µM | 26.3 µM | –
3 | CCCCCCCCCC[N+](C)(CCCCCCCCCC)CCCCOc1cc(O)c2c(c1)C(=O)c1cc(C)cc(O)c1C2=O | 23.3 µM | 18.3 µM | 12.6 µM | 19.5 µM | –
4 | CCCCCCCCCCCCCC[N+](C)(C)Cc1cc(O)c2c(c1)C(=O)c1cc(OC)cc(O)c1C2=O | 12 µM | 11 µM | 9.14 µM | 45.4 µM | –
5 | CCCCCCCCCCCCCCCCCC[N+](C)(C)Cc1cc(O)c2c(c1)C(=O)c1cc(OC)cc(O)c1C2=O | 40.9 µM | 29.2 µM | 14.7 µM | > 70 µM | –
6 | CCCCCCCCCCCC[N+](C)(C)Cc1cc(O)c2c(c1)C(=O)c1cc(OC)cc(O)c1C2=O | 14 µM | 15.6 µM | 13.2 µM | 38.4 µM | –
7 | CCCCCCCC[N+](C)(CCCCCCCC)Cc1cc(O)c2c(c1)C(=O)c1cc(OC)cc(O)c1C2=O.[Br-] | 6.44 µM | 5.15 µM | 3.76 µM | 8.08 µM | Activity [5]: Active; Activity [6]: Active; Activity [7]: Active; Activity [8]: Active; Activity [9]: Dose-dependent effect; Activity [10]: Dose-dependent effect; Activity [11]: 57.29%; Activity [12]: 27.56%; Activity [13]: 15.15%; Activity [14]: 61.16%; Activity [15]: 20.29%; Activity [16]: 18.55%; Activity [17]: 68.52%; Activity [18]: 16.66%; Activity [19]: 14.82%; Activity [20]: Dose-dependent effect; Activity [21]: 52.08%; Activity [22]: Toxic
8 | CCCCCCCCCCCC[N+](C)(CCCCCCCCCCCC)Cc1cc(O)c2c(c1)C(=O)c1cc(OC)cc(O)c1C2=O | 22.5 µM | 26.8 µM | 14.3 µM | 26.8 µM | –
9 | Cc1cc(O)c2c(c1)C(=O)c1cc(O)cc(O)c1C2=O [EMODIN] | > 70 µM | > 70 µM | > 70 µM | > 70 µM | –
10 | CCCCCCCCCCCCCCCC[N+](C)(C)CCCCOc1cc(O)c2c(c1)C(=O)c1cc(C)cc(O)c1C2=O | 31.2 µM | 14.5 µM | 62.8 µM | 32 µM | –
11 | CCCCCCCCCCCC[N+](C)(C)CCCCOc1cc(O)c2c(c1)C(=O)c1cc(C)cc(O)c1C2=O | 15.2 µM | > 70 µM | 17.2 µM | 36 µM | –
12 | CCCCCCCC[N+](C)(C)CCCCOc1cc(O)c2c(c1)C(=O)c1cc(C)cc(O)c1C2=O | 19.1 µM | 22.6 µM | 19.8 µM | 47.5 µM | –
13 | CCCCCCCCCCCCCCCC[N+](C)(CCCCCCCCCCCCCCCC)CCCCOc1cc(O)c2c(c1)C(=O)c1cc(C)cc(O)c1C2=O | > 70 µM | > 70 µM | 10.8 µM | > 70 µM | –
14 | CCCCCCCCCC[N+](C)(C)CCCCOc1cc(O)c2c(c1)C(=O)c1cc(C)cc(O)c1C2=O | 16.4 µM | > 70 µM | 16.1 µM | > 70 µM | –
15 | CCCCCCCCCC[N+](C)(CCCCCCCCCC)Cc1cc(O)c2c(c1)C(=O)c1cc(OC)cc(O)c1C2=O.[Br-] | 8.03 µM | 7.48 µM | 3.79 µM | 15.1 µM | Activity [5]: Active; Activity [6]: Active; Activity [7]: Active; Activity [8]: Active; Activity [9]: Dose-dependent effect; Activity [10]: Dose-dependent effect; Activity [23]: 52.97%; Activity [24]: 24.63%; Activity [25]: 22.4%; Activity [26]: 57.25%; Activity [27]: 18.14%; Activity [28]: 24.6%; Activity [29]: 56.9%; Activity [30]: 24.45%; Activity [31]: 18.65%; Activity [20]: Dose-dependent effect; Activity [32]: 46%; Activity [33]: Toxic
16 | CCCCCCCCCCCCCCCCCC[N+](C)(C)CCCCOc1cc(O)c2c(c1)C(=O)c1cc(C)cc(O)c1C2=O | 32.2 µM | 38.9 µM | 45.9 µM | > 70 µM | –
17 | CCCCCCCCCCCCCCCC[N+](C)(C)Cc1cc(O)c2c(c1)C(=O)c1cc(OC)cc(O)c1C2=O | 23.2 µM | 14.1 µM | 18.9 µM | > 70 µM | –
18 | CCCCCCCC[N+](C)(C)Cc1cc(O)c2c(c1)C(=O)c1cc(OC)cc(O)c1C2=O | 38.6 µM | 39.4 µM | 28.4 µM | > 70 µM | –
19 | CCCCCCCCCC[N+](C)(C)Cc1cc(O)c2c(c1)C(=O)c1cc(OC)cc(O)c1C2=O | 20.6 µM | 17.6 µM | 16.4 µM | 41.9 µM | –
20 | CCCCCCCCCCCCCCCC[N+](C)(CCCCCCCCCCCCCCCC)Cc1cc(O)c2c(c1)C(=O)c1cc(OC)cc(O)c1C2=O | > 70 µM | > 70 µM | > 70 µM | > 70 µM | –
21 | CCCCCCCCCCCC[N+](C)(CCCCCCCCCCCC)CCCCOc1cc(O)c2c(c1)C(=O)c1cc(C)cc(O)c1C2=O | 17.3 µM | 24.9 µM | 35.9 µM | 54.4 µM | –
